Results on 2 molecules are retold here after patent publication US20240164380A1, “ANTIFUNGAL COMPOSITIONS AND METHODS FOR THEIR USE” (Texas Crop Science, Inc., priority 2022, published 2024).

One test concerns apyrase. Kind of test: In vitro apyrase assay (screen for apyrase inhibitors). The settings on record: inhibitor conc at 1 mM, 1 hr at room temperature, absorbance @630 nm. In kind it is biochemical. On the procedure:
Method 1: In Vitro Apyrase Assay:
The apyrase inhibitory activity was assessed using an in vitro assay. The method of Windsor, Bio Techniques 33:1024-1030 (November 2002) was used as follows:
96 well plates were used for the assay: (Greiner bio-one: REF-655901- 96 well, PS, F-bottom, Clear, Non-binding)
Reaction Buffer: 60 mM Hepes; 3 mM MgCl2, 3 mM CaCl2 and 3 mM ATP (pH 6.5)
Development Buffer A: 2% aqueous ammonium molybdate
Development Buffer B: 11% ascorbic acid in 37.5% TCA in water
Stop buffer C: 2% trisodium citrate in 2% acetic acid solution in water • Add 100 μl of reaction buffer to each well. • Add 10 μl of DMSO (control) or inhibitor/compound or compounds such as N1915 or orthovanadate to each well. (use inhibitor conc at 1 mM; orthovanadate at 2 mM and N1915 at 1 mM) • Add 10 μl of apyrase (concentration based on optimization—Dilute 1 U/μl enzyme to different concentrations such as 0.1 U, 0.05 U, 0.0025, 0.001 U, 0.0005 U—to find a good range) • Incubate plate at room temperature for 1 hr • Mix development buffer A and B in the ratio of 1:1.5 (just before use). • Add 50 ul of A:B mix in each well (incubate for 2 mins) • Add 50 ul of C in each well • Measure/Read Absorbance of plate @630 nm Compound 1 inhibited inhibited apyrase in this assay at about 60%. : […]

The next test concerns plant pathogenic fungi. In words: Crop trials of fungicides with and without the enhancer compound (FIGS. 1-8). In kind it is in vivo. The settings on record: soy, wheat and grape crops. The text has this:
FIG. 1 illustrates Asian soybean rust severity in untreated crop (UTC) versus soy treated with azoxystrobin, chlorothalonil, tebuconazole or azoxystrobin and tebuconazole with and without the present enhancer compound (TX 15) at 1, 7, 9, 14 and 16 days after application (DAA).
FIG. 2 illustrates frogeye leaf spot intensity of infection in soy in untreated crop (UTC) versus soy treated with azoxystrobin, chlorothalonil, tebuconazole or azoxystrobin and tebuconazole with and without the present enhancer compound (TX15) at 4, 11 and 18 (two trials) days after application (DAA).
FIG. 3 illustrates yellow rust foliar infection percentage of wheat in untreated crop (UTC) versus wheat with preventive application of AMISTAR® (azoxystrobin), folpet, PROLINE® (prothioconazole), REVYSTAR® (fluxapyroxad and mefentrifluconazole), A20944 (prothioconazole and pydiflumetofen), ELATUS® ERA (prothioconazole and benzovindiflupyr), A21857 (ADEPIDYN®; pydiflumetofen), INATREQ® (fenpicoxamid) with and without the present enhancer compound (TX 15). […]
FIG. 7 illustrates the severity of downy mildew attack on grape crops assessed as to bunches and leaves in untreated crop (UTC) versus crop treated with cyazofamid or cyazofamid and the present enhancer compound (TX 15). […]

Test [1] concerns Zymoseptoria tritici (Septoria tritici). Kind of test: Greenhouse crop test of Compound 1 with metconazole on winter wheat. The class given is in vivo. To be noted: winter wheat infected with Z. tritici, preventative spray 1 d before inoculation, FIG. 9.
Procedure: A 2019 field isolate of Zymoseptoria tritici (Septoria tritici) was grown on potato dextrose agar (PDA), amended with penicillin and streptomycin, to eliminate possible bacterial contamination, for 6 d at 20° C.
Spore suspensions were made by flooding the plates with sterile distilled water and scraping gently. The spore suspensions were adjusted to 10^6 conidia mL^−1, by haemocytometer counts and appropriate dilution, before final re-suspension in potato dextrose broth, amended with 1.5 g L^−1 gelatin and 0.5 g L^−1 sodium oleate.
Septoria-susceptible winter wheat cv Trinity was planted in Levington M3 compost. Seeds (12-15 per pot) were planted per 9 cm pot and grown to growth stage 12. Plants were accommodated in a glasshouse with day heating to 20° C., venting at 22° C., and night heating to maintain 15° C. Plants were inoculated with Z. tritici by spraying spore suspensions at 10^6 spores ml^−1 to just before run-off. Three replicate pots were used per treatment. The plants were placed in sealed, transparent propagators for 72 hours, to maintain high relative humidity and to ensure free water remained on leaves. […] Preventative fungicide sprays were made 1 d before inoculation. Treatments were randomised within the glasshouse. All fungicides were applied at the equivalent rate of 200 L water per hectare, using a calibrated pressurised hand-held sprayer. […]

With `C/C(=N\NC(=O)c1cccc(C)c1)c1ccc2ccccc2c1` [Compound 1, (E)-3-methyl-N′-(1-(naphthalen-2-yl)ethylidene)benzohydrazide], the inhibited apyrase result with apyrase was “about 60%”. Also, in the test with plant pathogenic fungi, the “fungal growth in combination with exemplary fungicides” value is “dramatically reduces fungal growth”. Consider `CC1(C)CCC(Cc2ccc(Cl)cc2)C1(O)Cn1cncn1` (stereo not drawn) [metconazole], for which, in test [1], the “effect of combining Compound 1 (TX15) with the fungicide” value is listed as “synergistic effect”.
